Consider 7 compounds from patent publication US10183036B2, “Use of nicotinic acid riboside or nicotinamide riboside derivatives, and reduced derivatives thereof, as NAD+ increasing precursors” (Chromadex Inc., priority 2016, dated 2019).

One data set relates to Hela cells. As to the kind of experiment: NAD content in cultured Hela cells supplemented with NAD+ precursor (EnzyChrom NAD+/NADH assay kit). In kind it is cell-based. The following applies: 100 μM precursor, 24 h at 37° C., control = 100.0; for activity at 100 µM: Homo sapiens. On the procedure: Hela cells (passages 5-9) were grown in cell culture medium DMEM with 10% serum and were seeded in 6-well plates with a density of 3×10^5 cells per well containing 1 ml of culture medium overnight. The wells were aspirated, washed with PBS and 2 mL of fresh cell culture media was added. […] The media was aspirated and the wells washed with PBS, and for each condition 1×10^5 cells were isolated and analyzed using an ENZYCHROM™ NAD+/NADH ASSAY KIT (E2ND-100) following the manufacturer protocol (BioAssay Systems, Hayward, Calif.). This standard assay provides a quantitative colorimetric determination of NAD+/NADH at 565 nm.
Further, FIG. 9 presents the same data as a fold-increase in NAD over control. FIG. 8 presents a measurement of absolute NAD values (μM) in Hela cells (n=4) cultured in growth media supplemented with 100 μM of the corresponding NAD^+ precursor (nicotinyl riboside test compound) for 24 hours, versus control (NAD content in cells measured in the absence of treatment compound). A control value was determined for each replicate data set.

A short description of data set [1]: Stability in aqueous solution at various temperature and pH. In kind it is physicochemical. On the procedure: Nicotinamide riboside (NR) was prepared in 1000 ppm aqueous solution (w/v) at 2.5, 3.5 and 4.7 pH levels. Nicotinic acid riboside (NAR) was prepared n 1000 ppm aqueous solution (w/v) at 2.5, 3.5 and 6.2 pH levels. The six sample solutions were aliquoted into various small sealed vials to be used as individual sample pull points for analysis.

The next data set has as its system cells. The following applies: Kulikova et al. 2015; cited from earlier work.

In the case of `O=C(O)C1=CN([C@@H]2O[C@H](CO)[C@@H](O)[C@H]2O)C=CC1` [NARH, 1-(beta-D-ribofuranosyl)-1,4-dihydronicotinic acid], in the data set on Hela cells, the activity at 100 µM was 147%. Take `CC(=O)OC[C@H]1O[C@@H]([n+]2cccc(C(=O)O)c2)[C@H](OC(C)=O)[C@@H]1OC(C)=O` [NAR TA, 1-(2′,3′,5′-triacetyl-beta-D-ribofuranosyl)-nicotinic acid]: in the data set with Hela cells, the activity at 100 µM stood at 173%. Turning to `O=C(O)c1ccc[n+]([C@@H]2O[C@H](CO)[C@H](O)[C@H]2O)c1` [NAR, Nicotinic acid riboside], the activity at 100 µM in the data set on Hela cells is 295%. In addition, the “assay (concentration remaining) after storage” value in data set [1] (1000 ppm aqueous solution, 4° C., after 140 days) is recorded as “greater than 95%”. Moreover, the “stability in comparison to NR” value in data set [1] (aqueous solution, 4° C. and 25° C., all measured pH levels) is recorded as “much greater stability”. For the same compound, the “stability over time in weeks” value in data set [1] (aqueous solution, higher temperature and lower pH) is “markedly decreased”. Also, the “concentration that supports cell survival” value with cells is “about 1 micromolar”. As for `NC(=O)c1ccc[n+]([C@@H]2O[C@H](CO)[C@@H](O)[C@H]2O)c1` [NR, Nicotinamide riboside], the activity at 100 µM in the data set with Hela cells was 141%. In the data set with cells, the “amount required to maintain viability relative to NAR” value was 10 times.

With `CC(=O)OC[C@H]1O[C@@H](N2C=CCC(C(N)=O)=C2)[C@H](OC(C)=O)[C@@H]1OC(C)=O` [NRH TA, 1-(2′,3′,5′-triacetyl-beta-D-ribofuranosyl)-1,4-dihydronicotinamide], the activity at 100 µM with Hela cells amounted to 146%.

With `CC(=O)OC[C@H]1O[C@@H]([n+]2cccc(C(N)=O)c2)[C@H](OC(C)=O)[C@@H]1OC(C)=O` [NR TA, 1-(2′,3′,5′-triacetyl-beta-D-ribofuranosyl)-nicotinamide], in the data set with Hela cells, the activity at 100 µM came out at 199%. `CC(=O)O[C@@H]1[C@@H](COC(=O)c2cccnc2)OC(=O)[C@@H]1OC(C)=O` [cyclic, 2′,3′-diacetyl-5′-nicotinoyl ribolactone]: in the data set on Hela cells, the “NAD % vs control” value is 178.0%.
